Data taken from patent US12662476B2, “Herbicidal thiazole compounds” (SYNGENTA CROP PROTECTION AG, priority 2019, dated 2026).

Tests used:
Format in all cases: in vivo
[1] = test system: Echinochloa crus-galli (ECHCG); assay: Post-emergence herbicidal glasshouse test; settings: sprayed after 8 days cultivation, 250 g/ha, evaluated after 13 days, five-point scale
Method: (§1) Seeds of a variety of test species are sown in standard soil in pots Amaranthus retoflexus (AMARE), Echinochloa crus-galli (ECHCG), Setaria faberi (SETFA)). After cultivation for one day (pre-emergence) or after 8 days cultivation (post-emergence) under controlled conditions in a glasshouse (at 24/16° C., day/night; 14 hours light; 65% humidity), the plants are sprayed with an aqueous spray solution derived from the formulation of the technical active ingredient in acetone/water (50:50) solution containing 0.5% Tween™ 20 (polyoxyethylene sorbitan monolaurate, CAS RN 9005-64-5). Compounds are applied at 250 g/ha unless otherwise stated. The test plants are then grown in a glasshouse under controlled conditions in a glasshouse (at 24/16° C., day/night; 14 hours light; 65% humidity) and watered twice daily. After 13 days for pre- and post-emergence, the test is evaluated for the percentage damage caused to the plant. The biological activities are shown in the following table on a five-point scale (5=81-100%; 4=61-80%; 3=41-60%; 2=21-40%; 1=0-20%).

[2] = test system: Amaranthus retoflexus (AMARE); assay: Post-emergence herbicidal glasshouse test; settings: sprayed after 8 days cultivation, 250 g/ha, evaluated after 13 days, five-point scale
Method: as §1

[3] = test system: Setaria faberi (SETFA); assay: Post-emergence herbicidal glasshouse test; settings: sprayed after 8 days cultivation, 250 g/ha, evaluated after 13 days, five-point scale
Method: as §1

[4] = test system: Echinochloa crus-galli (ECHCG); assay: Pre-emergence herbicidal glasshouse test; settings: sprayed after one day cultivation, 250 g/ha, evaluated after 13 days, five-point scale
Method: as §1

[5] = test system: Amaranthus retoflexus (AMARE); assay: Pre-emergence herbicidal glasshouse test; settings: sprayed after one day cultivation, 250 g/ha, evaluated after 13 days, five-point scale
Method: as §1

[6] = test system: Setaria faberi (SETFA); assay: Pre-emergence herbicidal glasshouse test; settings: sprayed after one day cultivation, 250 g/ha, evaluated after 13 days, five-point scale
Method: as §1

SMILES	percentage damage caused to the plant, ECHCG [1]	percentage damage caused to the plant, AMARE [2]	percentage damage caused to the plant, SETFA [3]	percentage damage caused to the plant, ECHCG [4]	percentage damage caused to the plant, AMARE [5]	percentage damage caused to the plant, SETFA [6]
FC(F)c1cc(-c2c(Cl)cccc2Oc2ncc(Cl)s2)on1 [Compound 1.022]	5 (5=81-100%)	5 (5=81-100%)	5 (5=81-100%)	5 (5=81-100%)	5 (5=81-100%)	5 (5=81-100%)
Fc1cccc(Oc2nc(Br)cs2)c1-c1cc(C(F)F)no1 [Compound 1.007]	4 (4=61-80%)	5 (5=81-100%)	5 (5=81-100%)	3 (3=41-60%)	5 (5=81-100%)	5 (5=81-100%)
N#Cc1cccc(Oc2ncc(Cl)s2)c1-c1cc(C(F)F)no1 [Compound 1.012]	3 (3=41-60%)	5 (5=81-100%)	4 (4=61-80%)	4 (4=61-80%)	2 (2=21-40%)	5 (5=81-100%)
FC(F)c1cc(-c2c(Br)cccc2Oc2ncc(Cl)s2)on1 [Compound 1.023]	5 (5=81-100%)	5 (5=81-100%)	5 (5=81-100%)	5 (5=81-100%)	5 (5=81-100%)	5 (5=81-100%)
Fc1cccc(Oc2ncc(C(F)F)s2)c1-c1cc(C(F)F)no1 [Compound 1.001, 3-(difluoromethyl)-5-[2-[5-(difluoromethyl)thiazol-2-yl]oxy-6-fluoro-phenyl]isoxazole]	5 (5=81-100%)	5 (5=81-100%)	5 (5=81-100%)	5 (5=81-100%)	5 (5=81-100%)	5 (5=81-100%)
FC(F)c1cc(-c2ccccc2Oc2ncc(C(F)F)s2)on1 [Compound 1.021]	1 (1=0-20%)	4 (4=61-80%)	3 (3=41-60%)	4 (4=61-80%)	3 (3=41-60%)	4 (4=61-80%)
Fc1cccc(Oc2ncc(Cl)s2)c1-c1cc(C(F)F)no1 [Compound 1.006]	4 (4=61-80%)	5 (5=81-100%)	5 (5=81-100%)	5 (5=81-100%)	5 (5=81-100%)	5 (5=81-100%)
FC(F)c1cc(-c2c(Br)cccc2Oc2nc(C(F)(F)F)cs2)on1 [Compound 1.034]	3 (3=41-60%)	4 (4=61-80%)	4 (4=61-80%)	3 (3=41-60%)	4 (4=61-80%)	5 (5=81-100%)
